# Test results published in patent publication US20070077316A1, “Compositions and methods for treating and preventing virus infections” (priority 2005, published 2007).
# “And” between values parts separate entries of the source, which are not always exact repeats. Equal values may be shown once. Read-outs that look alike come from different tables or passages of the source.
# How the values were obtained:
# HRV14-induced vNOX = assay: Spectrophotometric vNOX activity assay (NADH oxidation) with HRV-infected MCF-10A cells
# [1] = test system: tNOX-like activity (vNOX); assay: NADH oxidase activity at the surface of HRV14-infected MCF-10A cells (tNOX-like activity, 22 min period); type: biochemical, human; conditions: 1 μM, added after 45 min
# Description: FIG. 11: NADH oxidase activity assayed for 90 min at the surface of MCF-10A human mammary epithelial cells. Capsaicin (1 μM) was added after 45 min and the assay was continued for an additional 45 min. Top Panel: No virus. Bottom Panel: MCF-10A human mammary cells infected with HRV 14. The MCF-10A cells normally lack a drug-inhibited NOX activity (lack tNOX). The normal, capsaicin-resistant constitutive NOX activity with a period length of 24 min is shown by the single downward pointing arrows. The triple arrows are tNOX-like activities with a period length of 22 min and which were inhibited by capsaicin. This activity appeared only in the virus-infected cells (see also FIG. 12). The upward pointing arrows denote a capsaicin-stimulated activity sometimes observed in proliferating endothelial cells present both with and without virus. tNOX-like activities (triple arrows) inhibited by 1 μM capsaicin now dominate the activity pattern.
# FIG. 12: As in FIG. 11 except 20 h post-infection with HRV 14. Top Panel: No virus. The control MCF-10A cells normally lack a drug-inhibited NOX activity (lack tNOX). Bottom Panel: MCF-10A cells 20 h post infection with HRV 14. The normal, capsaicin-resistant constitutive NOX activity with a period length of 24 min is shown by the single downward pointing arrows. […]
# MT-2 cells = assay: Toxicity to non-infected MT-2 cells by MTT utilization; type: cell-based, human
# Description: After 5 days, 20 μl of MTT stock solution (7.5 mg/ml) was added. […] Subsequently, 100 μl of 10% v/v Triton X100 in acidified isopropanol was added, and absorbance was determined at 550 nm with reference at 630 nm. The cytotoxic effect of EGCg was reflected by a decrease of the cell viability of mock infected cells in the presence of EGCg in comparison to mock infected cells without EGCg (OD 492 nm) was lower than the value of mock infected cells without EGCg. The cytotoxicity values are given as negative values. Positive values are recorded for a stimulatory effect on cell viability and/or an increase in cell proliferation. Testing the antiviral potency of various compositions was accomplished as follows. EGCg and EC were from Sigma (St. Louis, Mo.). Stock solutions of 100 mM were prepared in ethanol and serially diluted with water between 10^−3 molar and 10^−9 molar. […] Each experiment was in a fourfold assay.
# [2] = test system: TMEV/GDVII virus, TMEV/Bean virus; type: cell-based, Theiler's murine encephalomyelitis virus; conditions: RAW macrophages
# human rhinovirus HRV 14 = assay: HRV-HeLa test system: cytopathic effect of human rhinovirus in HeLa cells; type: cell-based; conditions: HRV 14, HeLa, XTT test 72 h post infection; read-out: EC50 inhibition of CPE
# [3] = test system: HXB II standard virus strain of HIV; assay: HIV-1 replication in MT-2 cells scored by titration of supernatants (syncytia); type: cell-based
# Excerpt: (§1) The MT-2 cell line, which cells are retrovirus transformed, was used. Virus applied to the MT-2 cells was the HXB II standard virus strain of HIV, isolated early in the 1980's (HIV Research Community Standard Reference Gene Sequence Data Base No. 135829). […] The main characteristic of the HXBII virus strain was to induce syncytia (SI) in certain cells such as MT-2 cells. This permitted assessment of the production of HIV by light microscopy, and thus, by titration of supernatant, the amount of infectious virus. Virus replication was determined as follows. Antiviral activity was assessed at day four or five after infection by scoring p24 antigen production by a commercial kit (DuPont) and by titration of the supernatants. Each well of each concentration of compound was titrated in a fourfold assay. MT-2 cells (4×10^5 per well) were added to all titration steps. After incubation, 100 μl of supplemented RPMI 1640 was added. After 5 d, all wells were scored for SI formation by light microscopy. The highest dilution (titer) displaying at least one SI were scored as positive, and the highest titers were averaged. […] Both MT-2 cell and PBM cell supernatants were titered on MT-2 cells. Testing the antiviral potency of various compositions was accomplished as follows. EGCg and EC were from Sigma (St. Louis, Mo.). Stock solutions of 100 mM were prepared in ethanol and serially diluted with water between 10^−3 molar and 10^−9 molar. […] Each experiment was in a fourfold assay.
# Herpes simplex virus 1 = type: cell-based; conditions: HeLa cells
# HIV = assay: Infectivity of HIV in MT-2 cells or PBMCs at different control virus titers; type: cell-based
# HRV14 [4] = assay: HRV14-induced CPE in less sensitive (Berlin) HeLa strain, XTT test; type: cell-based, human rhinovirus; conditions: for EC50: read-out: EC50 to prevent a cytopathic effect
# Description: Inhibition by CapsiVirol-T of the HRV cytopathic effect and effects on cell viability were tested using a HeLa strain which is less sensitive to tNOX inhibitors than certain other HeLa cells (Institute for Infectious Medicine, Berlin, Germany) (FIG. 17). In these studies, both CapsiVirol-T and EGCg, the principal green tea catechin, were tested. […] The test substance-containing medium was removed and the cells were infected with viruses at a multiplicity of infection of 0.1. For controls, virus infections were in the absence of the test substance. Mock infections were in the presence and absence of the test substance. Cell viability was measured in the XTT test directly at the days post infection (d.p.i.) indicated (FIG. 17). […] The cytopathic effect induced by a virus was determined from a decrease of cell viability (=decrease of […] nm in comparison to the mock infected control in the absence of the test substance). […] Cell viability was measured with the XTT test. Virus inoculation in the presence of CapsiVirol-T (without FCS) was for 30 min. […] Cell viability was monitored using the XTT test after 1, 2, and 3 days p.i. A control was at 1.5 h p.i. (in the figure 0 d p.i.) (FIG. 18). High OD values represent living cells, and low OD values represent cell damage. This damage is either induced by HRV14 (=cytopathic effect/CPE) or a toxic effect of the compound in mock-infected cells.
# mock-infected HeLa cells = assay: Toxicity (cell viability) in mock-infected HeLa cells, XTT test; type: cell-based, human; conditions: at EC50 concentrations (0.1 μM and below)
# Description: Inhibition by CapsiVirol-T of the HRV cytopathic effect and effects on cell viability were tested using a HeLa strain which is less sensitive to tNOX inhibitors than certain other HeLa cells (Institute for Infectious Medicine, Berlin, Germany) (FIG. 17). In these studies, both CapsiVirol-T and EGCg, the principal green tea catechin, were tested. […] The test substance-containing medium was removed and the cells were infected with viruses at a multiplicity of infection of 0.1. For controls, virus infections were in the absence of the test substance. Mock infections were in the presence and absence of the test substance. Cell viability was measured in the XTT test directly at the days post infection (d.p.i.) indicated (FIG. 17). […] The cytopathic effect induced by a virus was determined from a decrease of cell viability (=decrease of […] nm in comparison to the mock infected control in the absence of the test substance). Cell viability was monitored using the XTT test after 1, 2, and 3 days p.i. A control was at 1.5 h p.i. (in the figure 0 d p.i.) (FIG. 18). High OD values represent living cells, and low OD values represent cell damage. This damage is either induced by HRV14 (=cytopathic effect/CPE) or a toxic effect of the compound in mock-infected cells.
# HIV-1 strain 952 = HIV-1 strain 952 infection of peripheral blood monocytes (p24 ELISA and syncytia titer on MT-2 cells); type: cell-based
# Excerpt: FIG. 4: ELISA of supernatant p24 antigen of HIV-1 strain 952 (solid line; solid symbols) and HIV-1 titer based on number of syncytia observed by light microscopy on day 5 by titration of the day 4 supernatants in previously uninfected MT-2 cells (dashed line; open symbols) as a measure of mature virus production after 4 d with HIV strain 952 (City Laboratory, Hamburg) and mononuclear cells in peripheral blood (PBMCs)=peripheral blood monocytes prepared from healthy volunteers, as described herein below. Assays were in triplicate ±standard deviations.
# As non-permanent cells, PBM cells were derived from freshly prepared pooled buffy coats from healthy blood donors. The PBM cells were isolated by Ficoll density gradient centrifugation and cultivated (stimulated with phytohemagglutinin) for 48 h in RPMI 1640 medium supplemented with 20% FBS and L-glutamine. PBMC tropic laboratory isolate No. 9.5 was used in the PBMC assays.
# Virus replication was determined as follows. Antiviral activity was assessed at day four or five after infection by scoring p24 antigen production by a commercial kit (DuPont) and by titration of the supernatants. […] After 5 d, all wells were scored for SI formation by light microscopy. The highest dilution (titer) displaying at least one SI were scored as positive, and the highest titers were averaged. […]
# [5] = test system: human peripheral blood lymphocytes; assay: Viability of human peripheral blood lymphocytes; type: cell-based; conditions: data not shown
# [6] = test system: HXB II standard virus strain of HIV; assay: HIV-1 replication in MT-2 cells scored by p24 antigen production; type: cell-based
# Excerpt: as §1
# HRV14 [7] = assay: HRV14 cytopathic effect in human osteoblast (hFOB) cells; conditions: between 1 and 1000 nM
# [8] = read-out: EC50 Cell Production I (Mar. 24, 2003), 73 h hrv-infected MCF-10A cells
# [9] = read-out: EC50 inhibition of vNOX
# [10] = read-out: EC50 Cell Production II (Apr. 01, 2003), 73 h hrv-infected MCF-10A cells
smiles,measurement,setting,value
CC(=O)Nc1ccc(O)cc1 [Acetaminophen],"EC50 inhibition of vNOX, range in words",HRV14-induced vNOX,micromolar range
same,EC50,HRV14-induced vNOX; [8],1000 nM
COc1cc(CNC(=O)CCCC/C=C/C(C)C)ccc1O [Capsaicin],tNOX-like activities with a period length of 22 min,[1],inhibited
same,EC50,"HRV14-induced vNOX; read-out: EC50 Cell Production IV (May 01, 2003), 72 h HRV-infected MCF-10A cells",1 nM
"Oc1cc(O)c2c(c1)O[C@H](c1ccc(O)c(O)c1)[C@H](O)C2 [EC, (−)-epicatechin]",toxicity by MTT utilization,MT-2 cells,no toxicity
"O=C(O[C@@H]1Cc2c(O)cc(O)cc2O[C@@H]1c1cc(O)c(O)c(O)c1)c1cc(O)c(O)c(O)c1 [EGCg, (−)-epigallocatechin-3-gallate]",infection,[2],prevented
same,EC50,human rhinovirus HRV 14,~1000 nM
same,reduction of titers,[3]; 1 nM,no reduction
same,"titrated virus, % of the virus control or EC control",[3]; 10^−5 M,20%
same,reduction of titers,[3]; 10^−6 and 10^−7 M,approximately 50%
same,reduction of titers,[3]; 10^−8 M,40%
same,reduction of MTT utilization,MT-2 cells; 10^−4 M,90%
same,cytotoxic effects by MTT utilization,MT-2 cells; dilutions of less than 10^−5 M,no cytotoxic effects
same,infection,Herpes simplex virus 1,prevented
same,infectivity (syncytia reassay),HIV; 1 μM,almost entirely prevented
same,EC50,"HIV; control virus production of 14,000 infective particles/ml, read-out: EC50 reducing infectivity of HIV",~1000 nM
same,EC50,"HIV; control virus production of 40,000 infective particles/ml, read-out: EC50 reducing infectivity of HIV",~10000 nM
same,EC50,"HIV; read-out: EC50 for prevention of infection (day 4 supernatants reassayed on MT-2 cells, syncytia after 5 days)",~100 nM
same,fold higher concentration compared to CapsiVirol-T required to achieve inhibition,HRV14 [4],≥ 10 fold
same,EC50,HRV14 [4]; day 1,< 100 nM
same,EC50,HRV14 [4]; day 2,100 nM
same,toxicity,mock-infected HeLa cells,not toxic
same,EC50,HRV14-induced vNOX; [9],10 nM
same,infection (production of infective particles based on p24 assay),"HIV-1 strain 952; 10 μM, PBMC, strain 952",prevented
same,EC50,"HIV-1 strain 952; PBMC supernatants, read-out: EC50 for inhibition of production of infective virus (syncytia formation after 5 days on MT-2 cells)",< 1000 nM
same,effect on viability,[5],without effect
same,effect on p24 production,[6]; 1 nM,no effect
same,inhibition of virus production (p24) as compared to the virus control,"[6]; 10^−4 M, 4 or 5 d",93%
same,inhibition of virus replication (p24),"[6]; 10^−5 M, 4 or 5 d",45%
same,inhibitory effect (p24),[6]; 10^−6 and 10^−7 M,approximately 20%
CC(C)Cc1ccc(C(C)C(=O)O)cc1 (stereo not shown) [Ibuprofen],"EC50 inhibition of vNOX, range in words",HRV14-induced vNOX,micromolar range
same,EC50,HRV14-induced vNOX; [8],1000 nM
same,EC50,HRV14-induced vNOX; [9],~10000 nM
COc1ccc2cc([C@H](C)C(=O)O)ccc2c1 [Naproxen],"EC50 inhibition of vNOX, range in words",HRV14-induced vNOX,micromolar range
same,EC50,HRV14-induced vNOX; [8],5000 nM
same,EC50,HRV14-induced vNOX; [10],2000 nM
same,EC50,HRV14-induced vNOX; [9],~10000 nM
COc1cc(CN)ccc1O [Vanillylamine],EC50,HRV14-induced vNOX; [9],0.1 nM
"[Cl-].[Cl-].[Zn+2] [ZnCl2, zinc chloride]",reduction of the cytopathic effect,HRV14 [7]; virus dilution of 1:20,71±9%
same,reduction of the cytopathic effect,HRV14 [7]; virus dilution of 1:50,50%±14%
same,EC50,HRV14-induced vNOX; [8],10 nM
same,EC50,HRV14-induced vNOX; [10],10 nM
same,EC50,HRV14-induced vNOX; [9],~10 nM and 10 nM
